Data set [1] relates to Human immunodeficiency virus 1. Briefly: Antiviral activity against HIV1 MN infected in human C8166 cells assessed as reduction in Ag gp120 production by ELISA. Format: functional, organism-based. As to conditions: Human immunodeficiency virus 1, MN.
Data set [2] can be described thus: Cytotoxicity against human C8166 cells by XTT-formazan method. Type of data set: cell-based. The note with it: read-out: TC50 (the source's name).
Data set [3] in a line: Selectivity index, ratio of EC50 for HIV1 MN infection in human C8166 cells to TC50 for human C8166 cells. Format: functional.
Data set [4] concerns Human immunodeficiency virus 1. Briefly: Antiviral activity against HIV1 MN infection in human C8166 cells after 2 days by syncitium-forming assay. Format: functional, organism-based.
For data set [5], the system named is C8166. Briefly: Cytotoxicity against human C8166 cells at 250 ug/ml by XTT-formazan method. Type of data set: cell-based.

Values after ≈ are worked out from the molar mass of the structure shown. Active and inactive are the calls of the source. The calls are words filed in the database; no cut-off is given here. Bounds are passed on as bounds.

With `O=C(/C=C/c1ccc(O)cc1)OC[C@H]1O[C@@H](Oc2ccc(C(=O)/C=C/c3ccc(O)cc3)c(O)c2O)[C@H](O)[C@@H](O)[C@@H]1O`, the concentration giving a half-maximal response (EC50) in data set [1] came out at 50 µg/mL (≈ 86.1 µM). In addition, the CC50 in data set [2] is 250 µg/mL (≈ 431 µM). For the same compound, in data set [3], the “Selectivity Index” value amounted to 12.5.
`COc1ccc(-c2oc3cc(O[C@@H]4O[C@H](CO[C@@H]5O[C@@H](C)[C@H](O)[C@@H](O)[C@H]5O)[C@@H](O)[C@H](O)[C@H]4O)cc(O)c3c(=O)c2OC)cc1O`: the outcome in data set [4] was inactive.
For `CC(=O)OC[C@H]1O[C@@H](Oc2ccc(C(=O)/C=C/c3ccc(O)c(O)c3)c(O)c2O)[C@H](O)[C@@H](OC(C)=O)[C@@H]1OC(C)=O`, in data set [1], the EC50 was found to be 20 µg/mL (≈ 34.7 µM). Besides, the Activity entry in data set [5] was “Non-toxic”. The “Selectivity Index” value in data set [3] was found to be 12.5.
`COc1c(-c2ccc(O)c(O)c2)oc2cc(O[C@@H]3O[C@H](CO[C@@H]4O[C@@H](C)[C@H](O)[C@@H](O)[C@H]4O)[C@@H](O)[C@H](O)[C@H]3O)cc(O)c2c1=O`: the outcome in data set [4] was inactive.
For `CC(=O)O[C@H]1[C@H](O)[C@@H](O)[C@H](Oc2ccc(C(=O)/C=C/c3ccc(O)c(O)c3)c(O)c2O)O[C@@H]1COC(=O)/C=C/c1ccc(O)cc1`, the EC50 in data set [1] is 10 µg/mL (≈ 15.7 µM). Moreover, the CC50 in data set [2] came to 100 µg/mL (≈ 157 µM). For the same compound, the “Selectivity Index” value in data set [3] is recorded as >10.
As for `COc1ccc(-c2oc3cc(O[C@@H]4O[C@H](CO[C@@H]5O[C@@H](C)[C@H](O)[C@@H](O)[C@H]5O)[C@@H](O)[C@H](O)[C@H]4O[C@@H]4O[C@H](CO)[C@@H](O)[C@H](O)[C@H]4O)cc(O)c3c(=O)c2OC)cc1O`, in data set [4], the result was inactive.
Turning to `COc1ccc(-c2oc3cc(O[C@@H]4O[C@H](CO[C@@H]5O[C@@H](C)[C@H](O)[C@@H](O)[C@H]5O[C@@H]5O[C@@H](C)[C@H](O)[C@@H](O)[C@H]5O)[C@@H](O)[C@H](O)[C@H]4O)cc(O)c3c(=O)c2OC)cc1O`, the outcome in data set [4] was inactive.

The record behind these values is ChEMBL document CHEMBL1145703, “Flavonol and chalcone ester glycosides from Bidens leucantha” (J Nat Prod, 1997).
